Results as given in patent US11712439B2, “Methods and materials for identifying and treating bet inhibitor-resistant cancers” (Mayo Foundation for Medical Education and Research, priority 2017, dated 2023).

Experiments:
Assay type in all cases: cell-based, human
[1] = tested on: MYC; experiment: Western blot of MYC in C4-2 cells; conditions: control and SPOP-F133V C4-2 cells, JQ1 1 μM 24 hours
Description: (§1) Cell lysates or immunoprecipitates were subjected to SDS-PAGE, and proteins were transferred to nitrocellulose membranes (GE Healthcare Sciences). The membranes were blocked in Tris-buffered saline (TBS, pH 7.4) containing 5% non-fat milk and 0.1% Tween-20, washed twice in TBS containing 0.1% Tween-20, and incubated with primary antibody overnight at 4° C., followed by secondary antibody for 1 hour at room temperature. The proteins of interest were visualized using ECL chemiluminescence system (Santa Cruz Biotechnology). Densitometry analysis of protein bands was analyzed on the Gel-Pro Analyzer software.

[2] = tested on: AR; experiment: Western blot of AR, RT-qPCR of AR target genes and AR ChIP-qPCR in C4-2 cells; conditions: control and SPOP-F133V C4-2 cells, JQ1 1 μM 24 hours
Description: as §1
Total RNA was isolated from transiently transfected cells using the Trizol reagent (Thermo Fisher Scientific), and cDNA was reverse-transcribed using the Superscript RT kit (TOYOBO, Japan) according to the manufacturer's instructions. PCR amplification was performed using the SYBR Green PCR master mix Kit (TOYOBO, Japan). All quantization was normalized to the level of endogenous control GAPDH. […]

[3] = tested on: BRD2/3/4; experiment: In vivo ubiquitination assay and Western blot of SPOP-induced BRD2/3/4 degradation in 293T cells; conditions: JQ1 1 μM for 24 hours
[4] = tested on: AKT-mTORC1 pathway; experiment: Western blot of AKT and S6K phosphorylation in C4-2 cells; conditions: cells expressing mutant SPOP (SPOP-F133V)
Description: as §1

Cc1sc2c(c1C)C(c1ccc(Cl)cc1)=N[C@@H](CC(=O)OC(C)(C)C)c1nnc(C)n1-2 [JQ1]
MYC protein expression [1]: markedly decreased
AR protein level [2]: largely decreased
AR transcriptional activity [2]: largely decreased
SPOP-induced BRD2/3/4 ubiquitination and degradation [3]: partially blocked
JQ1-induced inhibition of phosphorylation of AKT-mTORC1 pathway proteins [4]: largely impedes
